Source: PMC10470053, “Diverse p120RasGAP interactions with doubly phosphorylated partners EphB4, p190RhoGAP, and Dok1” (The Journal of Biological Chemistry, 2023)
Values joined by “and” are separate entries in the source; they are usually repeats but may differ in a detail not shown here. Equal values may be shown once. Read-outs that look alike come from different tables or passages of the source. Square brackets hold non-standard residues; d marks the D form. Peptide text beside a SMILES is read from it. pY = N[C@@H](Cc1ccc(OP(=O)(O)O)cc1)C(=O)O

What was measured:
[1] = biological target: T1, RasGAP^232(mut) (R398E/K400E, C-SH2 mutant) (Homo sapiens, UniProt P20936, C236S/C261S/C372S/C402S/K400E/R398E); experiment: Isothermal titration calorimetry, C-SH2 mutant RasGAP^232(mut); format: binding
T1 construct: (residues 174–444, termed RasGAP^232); hexahistidine (TEV-cleavable) (N, cleaved yes); made in house; host or cells: E. coli Rosetta (DE3)
T1 sequence (P20936 174-444 C236S/C261S/C372S/R398E/K400E/C402S): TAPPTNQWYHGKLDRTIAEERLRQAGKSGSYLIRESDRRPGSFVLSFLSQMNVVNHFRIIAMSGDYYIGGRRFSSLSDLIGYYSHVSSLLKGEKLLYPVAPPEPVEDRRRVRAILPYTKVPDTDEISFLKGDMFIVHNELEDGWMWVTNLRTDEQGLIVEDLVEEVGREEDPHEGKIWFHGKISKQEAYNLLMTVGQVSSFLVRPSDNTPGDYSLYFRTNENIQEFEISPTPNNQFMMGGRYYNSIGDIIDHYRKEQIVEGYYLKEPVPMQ
Method: One possibility for the difference in binding affinity of EphB4 compared to the other dually phosphorylated peptides is that only a single SH2 domain engages EphB4 at any time. This is supported by the observation that the Kd of binding, 2 μM, is similar to other reported individual SH2 phosphotyrosine interactions (for examples see ([60])) and the evidence of only one inflection point in the doubly phosphorylated EphB4–binding isotherm (Figs. 2B and S3). To assess this hypothesis, we generated two RasGAP^232 mutants that disrupt the phosphotyrosine-binding sites of either the N- or C-SH2 domains and conducted further ITC experiments. […] For the ‘FLVR-unique” C-terminal SH2, we introduced a double mutation R398E/K400E, to abrogate phosphotyrosine binding guided by our previous work ([52]), termed RasGAP^232(mut) (Fig. 2D). We additionally generated a double mutant of both SH2 domains, RasGAP^2(mut)32(mut), and purified each of these proteins (Fig. S2, B–D). […] We then assessed phosphopeptide binding of the single mutant SH2 domains. […] This is similar to the Kd of 2 ± 0.7 μM observed for titration of this peptide into WT RasGAP^232.
To attempt to parse the specificity of RasGAP for the more N- or C-terminal EphB juxtamembrane phosphotyrosines pY590 and pY596, we assessed the affinity of RasGAP^232(mut) for shorter synthesized EphB4 peptides corresponding to either of the two phosphotyrosines (Fig. 1C). […] Alternatively, the C-terminal SH2 may contribute to a second weaker interaction in a tandem interaction. […] This low-affinity interaction represents a primarily single N-SH2-dominant interaction.
Purified RasGAP^232 protein and solubilized peptides were dialyzed overnight against buffer containing 20 mM Tris pH 8, 250 mM NaCl in Slide-A-Lyzer 3 ml 10 kDa molecular weight cut off cassettes (Spectra-Por) and Micro Float-A-Lyzer 0.1 to 0.2 ml, 0.1 to […] molecular weight cut off devices (Spectra-Por), respectively. Protein and peptide concentrations were determined by A280 measured on a Nanodrop Lite (Thermo Fisher Scientific) instrument using extinction coefficients of 45,840 M^−1 cm^−1 for RasGAP^232 (and mutants), 917 M^−1 cm^−1 for the doubly phosphorylated EphB4 peptide, and 458.5 M^−1 cm^−1 for the singly phosphorylated EphB4 peptides as determined by ([74]). Dok1 peptide concentration was confirmed using Amino Acid Analysis performed at UC Davis Molecular Structure Facility. Samples were centrifuged for 10 min at 4 °C and degassed for 7 min using a Degassing Station (TA Instruments). ITC experiments were performed on a Nano ITC (TA Instruments) by loading protein into the 190 μl sample cell and titrating 20 times with 2.5 μl peptide in the titration syringe. Concentrations for sample cell and syringe for each trial are included in Table S1. The data were analyzed in NanoAnalyze software (TA Instrument) using blank (constant) and independent models (https://www.tainstruments.com/itcrun-dscrun-nanoanalyze-software/).

[2] = Reconstitution of lyophilized peptides in water; format: physicochemical; details: lyophilized peptide reconstituted in water; spiked with 20 mM Tris pH 8 or 10 mM NaOH to increase solubility
Description: Synthetic peptides were purchased from GenScript and contain N-terminal acetylation and C-terminal amidation for stability. The doubly phosphorylated EphB4 peptide (UniProt ID P54760) used in ITC and SAXS experiments contains residues 586 to 602 (GTKV[pTyr]IDPFT[pTyr]EDPNEA). The singly phosphorylated EphB4 peptides pY590 and pY596 used in ITC experiments contain the residues 586 to 595 (GTKV[pTyr]IDPFT) and residues 592 to 602 (DPFT[pTyr]EDPNE), respectively. The p190RhoGAP peptide (UniProt ID Q9NRY4) used in SAXS experiments contains the residues 1083 to 1111 (SD[pTyr]AEPMDAVVKPRNEEENI[pTyr]SVPH). The Dok1 peptide (UniProt ID Q99704) used in ITC and SAXS experiments contains the residues 291 to 322 (SPPAL[pTyr]AEPLDSLRIAPCPSQDSL[pTyr]SDPLDST). Lyophilized peptides were reconstituted in water, and less soluble peptides (pYpYEphB4 and pY590) were spiked with 20 mM Tris pH 8 or 10 mM NaOH to increase solubility. Concentrations of stock peptides are as follows: pYpY190 stock concentration is 10 mM; pYpYEphB4 stock concentration is 2.5 mM; Dok1 stock concentration is 5.5 mM; pY596 stock concentration is 10 mM; and pY590 stock concentration is 8 mM.

[3] = biological target: p190RhoGAP-A doubly phosphorylated peptide (Homo sapiens) (UniProt Q9NRY4); experiment: ITC; details: cited from earlier work
Chain of p190RhoGAP-A doubly phosphorylated peptide (Homo sapiens) (Q9NRY4 1083-1111): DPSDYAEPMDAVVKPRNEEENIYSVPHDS

[4] = ITC, average of trials (Table S1)

Chain of p120RasGAP SH2-SH3-SH2 (P20936 174-444): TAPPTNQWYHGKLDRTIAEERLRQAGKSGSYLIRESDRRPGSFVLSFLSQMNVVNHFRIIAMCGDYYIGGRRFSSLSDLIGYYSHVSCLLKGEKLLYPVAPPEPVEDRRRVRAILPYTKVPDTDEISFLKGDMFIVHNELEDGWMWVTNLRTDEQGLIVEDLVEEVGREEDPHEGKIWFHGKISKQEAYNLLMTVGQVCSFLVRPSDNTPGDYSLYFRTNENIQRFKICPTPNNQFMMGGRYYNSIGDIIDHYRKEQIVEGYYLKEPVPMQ

| Compound | weaker binding than the doubly phosphorylated EphB4 peptide ([1]; ITC Kd, singly versus doubly phosphorylated EphB4 peptide) | n ([1]; ITC stoichiometry, mean ± SD of trials) | -T∆S [1, 4] | Ka [1, 4] | ∆G [1, 4] | ΔS ([1]; ITC, mean ± SD of trials) | -T∆S ([1]; trial 2, ITC) | Ka ([1]; trial 2, ITC) | ∆G ([1]; trial 2, ITC) | ∆H ([1]; trial 2, ITC) | ∆S ([1]; trial 2, ITC) | -T∆S ([1]; trial 3, ITC) | ∆G ([1]; trial 3, ITC) | ∆H ([1]; trial 3, ITC) | ∆S ([1]; trial 3, ITC) | Kd ([1]; trial 3, ITC, read-out: Ka) | solubility on reconstitution, in words [2] | Kd ([1]; ITC, 20 mM Tris pH 8, 250 mM NaCl, independent model, mean ± SD of trials (n = 4 pYpY EphB4, n = 3 pY590, pY596), read-out: Kd) | Kd [3] |
| --- | --- | --- | --- | --- | --- | --- | --- | --- | --- | --- | --- | --- | --- | --- | --- | --- | --- | --- | --- |
| CC[C@H](C)[C@H](NC(=O)[C@H](Cc1ccc(OP(=O)(O)O)cc1)NC(=O)[C@@H](NC(=O)[C@H](CCCCN)NC(=O)[C@@H](NC(=O)CNC(C)=O)[C@@H](C)O)C(C)C)C(=O)N[C@@H](CC(=O)O)C(=O)N1CCC[C@H]1C(=O)N[C@@H](Cc1ccccc1)C(=O)N[C@H](C(N)=O)[C@@H](C)O [pY590 EphB4] (Ac-GTKV[pY]IDPFT-NH2) | about 10 fold | 0.8 ± 0.1 | -12 kJ/mol | 0.07 µM⁻¹ | -28 kJ/mol | 40 J/mol∗K and 40 ± 18 J/mol∗K | -11.8 kJ/mol | 0.07 µM⁻¹ | -27.6 kJ/mol | -15.8 kJ/mol | 40.0 J/mol*K | -17.4 kJ/mol | -28.6 kJ/mol | -11.2 kJ/mol | 58.3 J/mol*K | 100 nM | less soluble | – | – |
| CC[C@H](C)[C@H](NC(=O)[C@H](Cc1ccc(OP(=O)(O)O)cc1)NC(=O)[C@@H](NC(=O)[C@H](CCCCN)NC(=O)[C@@H](NC(=O)CNC(C)=O)[C@@H](C)O)C(C)C)C(=O)N[C@@H](CC(=O)O)C(=O)N1CCC[C@H]1C(=O)N[C@@H](Cc1ccccc1)C(=O)N[C@H](C(=O)N[C@@H](Cc1ccc(OP(=O)(O)O)cc1)C(=O)N[C@@H](CCC(=O)O)C(=O)N[C@@H](CC(=O)O)C(=O)N1CCC[C@H]1C(=O)N[C@@H](CC(N)=O)C(=O)N[C@@H](CCC(=O)O)C(=O)N[C@@H](C)C(N)=O)[C@@H](C)O [pYpY EphB4] (Ac-GTKV[pY]IDPFT[pY]EDPNEA-NH2) | – | – | – | – | – | – | – | – | – | – | – | – | – | – | – | – | less soluble | 1000 ± 300 nM | – |
| p120RasGAP SH2-SH3-SH2 (from UniProt P20936) | – | – | – | – | – | – | – | – | – | – | – | – | – | – | – | – | – | – | 10 nM |
